Data published in patent US20230398130A1, “METHODS AND COMPOSITIONS FOR DIFFERENTIATING STEM CELLS” (Massachusetts Institute of Technology, priority 2020, published 2023).
“Also recorded” adds a separate entry of the source. Like-named read-outs stand apart in the source and are kept apart here.

What was measured:
ISC-enriched organoids [1] = experiment: Primary screen, 384-well 2.5-D organoid differentiation (ENR+CD, 6 days, Target Selective Inhibitor Library, vs whole-plate median): ATP (CellTiter-Glo 3D, CTG); settings: for Z.CTG / SSMD.CTG: primary screen; for Z.CTG: standard z score; for SSMD.CTG: strictly standardized mean difference
small intestine = system: small intestine; set-up: cycling cell number: dose or concentration left out as unconfirmed
Text: FIG. 20—KPT-330 treatment in vivo.
FIG. 21A-21C—Analysis of samples collected from the mice of FIG. 20. A. Western blot for lysozyme of samples collected from the small intestine proximal region. B. Graph showing band intensity of the western blot in (A). C. Histological analysis of the distal small intestine from control and treated mice using immunohistochemistry for lysozyme.
FIG. 22—Analysis of samples collected from the mice of FIG. 20. […] Graphs showing Paneth cell, Goblet cell, and cycling cell numbers in the proximal and distal small intestines under each treatment condition using markers for each cell type.

Paneth cells = experiment: Flow cytometry of 3D-cultured intestinal organoids (ENR+CD, 6 days): Paneth cell fraction (lysozyme-positive, CD24-mid); assay type: cell-based, murine
Experimental: Flow cytometry analysis (3D culture). ISC-enriched organoids cultured in 3D Matrigel with ENRCV media were passaged to 24-well plate in 3D Matrigel with ENRCV. At day zero, media were replaced to ENRCD with or without indicated compounds, and media were replaced every other day. […] Flow cytometry was performed using an LSR Fortessa (BD; Koch Institute Flow Cytometry Core at MIT). The data were analyzed using FlowJo v10 software.
Single live cells were selected by several gating strategies and Paneth cells were identified as lysozyme-high, CD24-mid, side scatter-high (SSC-high) (FIG. 27E). […] To evaluate whether the culture media supplements C and D may alter the effects of the 6 hits, Applicants also performed lysozyme assay in the canonical ENR culture condition in 3-D (because Paneth cells exist in an immature state within ENR, Applicants were unable to robustly quantify Paneth cell number via flow cytometry).
(§1) Flow cytometry. ISC-enriched organoids in 3D Matrigel culture were passaged to a 48-well plate and induced differentiation for 6 days by ENR+CD media containing DMSO or each drug indicated in the figures. DMSO- or drug-containing media were changed every other day. […] After vigorous pipetting and incubation at 37° C. for 15 min, the cell solution was diluted twice with basal media and centrifuged at 300 rcf for 3 min. […] The cell solution was centrifuged again at 300 rcf for 3 min at 4° C. to pellet the cells. […] Cells were centrifuged again for 3 min at 300 rcf and blocked with staining buffer (FACS buffer containing 0.5% Tween20 (Sigma, P2287)) for 15 min at RT in the dark. […] Flow cytometry was performed using an LSR Fortessa (BD; Koch Institute Flow Cytometry Core at MIT). Flow cytometry data were analyzed using FlowJo X v10.6.1 software.
Live Paneth cells were identified as LYZ-high, CD24-mid, side scatter-high (SSC-high) (FIG. 50F).
as §1, with “organoids in 3-D Matrigel culture” for “organoids in 3D Matrigel culture”, “to a 24- or 48-well plate” for “to a 48-well plate”

ISC-enriched organoids [2] = experiment: Lysozyme secretion assay, 3-D organoids in ENR+CD, normalized to ATP; assay type: cell-based, murine
Experimental: Lysozyme assay (3D culture). ISC-enriched organoids cultured in 3D Matrigel with ENRCV media were passaged to 48-well plate in 3D Matrigel with ENRCV. At day zero, media were replaced to ENR or ENRCD with or without indicated compounds, and media were replaced every other day. At day six, cells were washed twice with basal media and treated with carbamylcholine chloride (Sigma, C4382) for 3 hours. Media were collected and lysozyme activity was measured by EnzChek Lysozyme Assay Kit (ThermoFisher, E22013).
(§2) Lysozyme secretion assay. ISC-enriched organoids in 3D Matrigel culture were passaged to a 48- or 96-well plate and cultured with ENR or ENR+CD media containing DMSO or each drug for 6 days. DMSO- or drug-containing media were changed every other day. On day 6, cells were washed with basal media twice and treated with basal media with or without 10 μM carbamoylcholine chloride for 3 h in a CO2 incubator at 37° C. A part of the conditioned media was collected and used for lysozyme assay (Thermo, E-22013) following the manufacturer's instruction. The fluorescence was measured using excitation/emission of 485/530 nm. CellTiter-Glo 3D Reagent (Promega, G9681) was added afterward, and the cell culture plate was incubated on an orbital shaker at RT for 30 min to induce cell lysis and to stabilize the luminescent signal. The solution was replaced to a 96-well white microplate, and luminescent signals were measured by a microplate reader (infinite M200, Tecan). The standard curve was prepared by diluting recombinant ATP (Promega, P1132). For both assays, a polynomial cubic curve was fitted to a set of standard data, and each sample value was calculated on the Microsoft Excel.
as §2, with “in 3-D” for “in 3D”, “μM carbachol” for “μM carbamoylcholine chloride”, “3 hours” for “3 h”, “C. Conditioned” for “C. A part of the conditioned”, “nm. CTG” for “nm. CellTiter-Glo”, “Reagent” for “Reagent (Promega, G9681)”

O=C(/C=C\n1cnc(-c2cc(C(F)(F)F)cc(C(F)(F)F)c2)n1)NNc1cnccn1 [KPT-330]
Z.CTG (ISC-enriched organoids [1]; Dose 0.08 uM): 0.503 | Z.CTG (ISC-enriched organoids [1]; Dose 0.40 uM): −1.569 | Z.CTG (ISC-enriched organoids [1]; Dose 2.00 uM): −2.135 | Z.CTG (ISC-enriched organoids [1]; Dose 10.00 uM): −4.480 | toxicity at concentrations higher than 160 nM (ISC-enriched organoids [1]; primary screening): higher concentrations proved toxic | SSMD.CTG (ISC-enriched organoids [1]; 1st of the 4 dose lines of the treatment (dose not given)): 0.686 | SSMD.CTG (ISC-enriched organoids [1]; 2nd of the 4 dose lines of the treatment (dose not given)): −0.942 | SSMD.CTG (ISC-enriched organoids [1]; 3rd of the 4 dose lines of the treatment (dose not given)): −2.044 | SSMD.CTG (ISC-enriched organoids [1]; 4th of the 4 dose lines of the treatment (dose not given)): −2.988 | Paneth cell number (small intestine; distal small intestines, high dose): the high dose decreased Paneth cells | cycling cell number (small intestine; distal small intestines, low dose): significant increase in cycling cell number | toxicity to mice (small intestine; mouse, in vivo): toxic to mice | Paneth cell number (small intestine; proximal small intestines): no significant shift in Paneth cell number | goblet cell numbers (small intestine; proximal/distal small intestines): no significant shift in goblet cell numbers, but the trend was an increase | enrichment in mature Paneth cells at day 6 (Paneth cells; KPT-330 treatment day 0-2 of 6-day ENR+CD differentiation): greatest enrichment in mature Paneth cells | enrichment in mature Paneth cells at day 6 (Paneth cells; KPT-330 treatment day 2-4): moderate enrichment | enrichment in mature Paneth cells at day 6 (flow cytometry) (Paneth cells; KPT-330 treatment day 4-6): no different than untreated | mature Paneth cell population within organoids (Paneth cells; hit compound at most potent dose from 2.5-D screening, ENR+CD 6 days, 3-D culture, vs control): significantly enhanced the mature Paneth cell population | LYZ secretion, dose dependency (ISC-enriched organoids [2]; KPT-330 below 160 nM for 6 days, basal and Cch-stimulated): enhanced Paneth cell activity in a dose-dependent manner; also recorded: LYZ secretion increasing in a dose-dependent manner | enrichment in mature Paneth cells at day 6 (LYZ secretion assay) (ISC-enriched organoids [2]; KPT-330 treatment day 4-6): minorly enriched; also recorded: slightly enriched | most effective dose among tested concentrations (ISC-enriched organoids [2]; LYZ secretion, ENR+CD 6 days): 160 nM
